Measured values taken from US7053082B1, “2,3-benzodiazepine derivatives” (priority 1999, dated 2006).

How the values were obtained:
[1] = system: MgCl2-induced global cerebral ischemia in mice; experiment: Neuroprotective effect in MgCl2-induced global cerebral ischemia in mice; assay type: in vivo; settings: dose that prolonged survival time by 50%; i.p. 30 min before i.v. saturated MgCl2 (5 ml/kg); male NMRI mice
Method: Male NMRI mice weighing 20–25 g were randomly allocated to treatment groups of 10 animals/group. The compounds were dissolved in 5 M hydrochloric acid solution and distilled water (5%/95% v/v) then the pH of the solution was adjusted to 3 using 1 M sodium hydroxide solution. The compounds were administered intraperitoneally in a volume of 10 ml/kg. Each compound was tested at four increasing dose levels and a separate group of animals was treated with the vehicle. Thirty min after treatment all mice received an intravenous bolus injection of saturated MgCl2 solution (5 ml/kg) that caused an immediate cardiac arrest and complete cerebral ischemia. Increases in survival time (interval between the injection of MgCl2 and the last observable gasp) were used as a measure of neuroprotective effect as described by Berga et al.. Percentage changes in survival time were calculated in comparison to that measured in the vehicle treated group. PD50 (the dose that prolonged survival by 50%) was calculated by linear regression analysis using percentage changes in survival time.

[2] = Duration of action in rats as assessed from the decrease in body core temperature; assay type: in vivo; settings: male Wistar rats, i.p.; for PE, Δ ° C. (peak effect, maximum decrease in body temperature): radiotelemetry core body temperature, versus last value prior to treatment; for D, hours (duration of action): time from treatment to return of body temperature to the control level
Method: At least one week prior to treatments six male Wistar rats were anaesthetised with pentobarbital-Na (60 mg/kg, i.p.; Nembutal, Phylaxia-Sanofi, Budapest). Using sterile surgical procedures TL11M2-C50-PXT or TA10TA-F40 type radiotelemetry transmitters (Data Sciences International, St. Paul, Minn., USA) permitting continuous monitoring of core body temperature were implanted into the peritoneal cavity of the animals. After surgery the rats were treated with an antibiotic (1 ml/kg b.w. i.m. Tardomyocel, Bayer A G, Leverkusen, Germany). The animals were housed individually in type 2 plastic rat cages with free access to food and tap water. The compounds were dissolved in 5 M hydrochloric acid solution and distilled water (5%/95% v/v) then the pH of the solution was adjusted to 3 using 1 M sodium hydroxide solution. The compounds were administered intraperitoneally in a volume of 10 ml/kg.
Radio signals emitted by the transmitters were detected by RLA1000 type receivers placed under each animal's cage. Data were collected and saved by a Dataquest IV computerised data acquisition system. The computer was set to sample body temperature for 10 seconds in every second minute. Mean values for 30 min periods over the whole day were calculated running the “Sort Utility” of the Dataquest IV. […] The upper and lower limits of the evaluating routine were set to exclude biologically improbable values. Individual body temperature curves were averaged for the six animals.
Peak effect (PE) was measured as the maximum decrease in body temperature in comparison to the last value prior to treatment. Using mean values, duration of action (D) was measured as the time interval from treatment to return of body temperature to the control level.

SMILES | melting point [°C] | further results
Cc1cc(C2=NN=C(C=O)Cc3cc4c(cc32)OCO4)ccc1[N+](=O)[O-] | 188 to 191 | –
Cc1cc(C2=NN=C(C(=O)O)Cc3cc4c(cc32)OCO4)ccc1[N+](=O)[O-] | 185 to 186 | –
Cc1cc(C2=NN=C(C=NNC(N)=O)Cc3cc4c(cc32)OCO4)ccc1[N+](=O)[O-] | 260 to 264 | –
CC1=Cc2cc3c(cc2C(c2ccc([N+](=O)[O-])c(C)c2)=NN1C(=O)NC1CC1)OCO3 | 198 to 202 | –
Cc1cc(C2=NN=C(C#N)Cc3cc4c(cc32)OCO4)ccc1N | 252 to 255 | –
CC(=O)N1N=C(c2ccc(N)c(C)c2)c2cc3c(cc2C=C1C)OCO3 | 222 to 223 | –
CC1=NN=C(c2ccc([N+](=O)[O-])c(C)c2)c2cc3c(cc2C1)OCO3 | 189 to 194 | –
CC(=O)N1N=C(c2ccc([N+](=O)[O-])c(C)c2)c2cc3c(cc2CC1C(N)=O)OCO3 (racemic) | 157 to 161 | –
Cc1cc(C2=NNC(C)(C#N)Cc3cc4c(cc32)OCO4)ccc1[N+](=O)[O-] (racemic) | 148 to 151 | –
CC(=O)N1N=C(c2ccc([N+](=O)[O-])c(C)c2)c2cc3c(cc2CC1(C)C#N)OCO3 (racemic) | 253 to 255 | –
CCC(=O)N1N=C(c2ccc([N+](=O)[O-])c(C)c2)c2cc3c(cc2CC1(C)C#N)OCO3 (racemic) | 191 to 193 | –
Cc1cc(C2=NN(C(=O)NC3CC3)C(C)Cc3cc4c(cc32)OCO4)ccc1N (racemic) | 179 to 181 | –
CC(=O)N1N=C(c2ccc([N+](=O)[O-])c(C)c2)c2cc3c(cc2CC1C)OCO3 (racemic) | 178 to 181 | –
CCC(=O)N1N=C(c2ccc([N+](=O)[O-])c(C)c2)c2cc3c(cc2CC1C)OCO3 (racemic) | 172 to 175 | –
CC(=O)N1N=C(c2ccc(N)c(C)c2)c2cc3c(cc2CC1C)OCO3 (racemic) [Example 27, (±)-7-acetyl-5-(4-amino-3-methyl-phenyl)-7,8-dihydro-8-methyl-9H-1,3-dioxolo[4,5-h][2,3]benzodiazepine] | 121 to 123 | PD50, mg/kg i.p. [1]: 5.4 mg/kg; PE, Δ ° C. (peak effect, maximum decrease in body temperature) [2]: −1.45 °C; D, hours (duration of action) [2]: >20 h
CONC(=O)N1N=C(c2ccc(N)c(C)c2)c2cc3c(cc2CC1C)OCO3 (racemic) [Example 30, (±)-5-(4-amino-3-methyl-phenyl)-7,8-dihydro-8-methyl-7-(N-methozy-carbamoyl)-9H-1,3-dioxolo[4,5-h][2,3]benzodiazepine] | – | PD50, mg/kg i.p. [1]: 14.9 mg/kg
CNC(=O)N1N=C(c2ccc(N)c(C)c2)c2cc3c(cc2CC1C)OCO3 (racemic) [Example 31, (±)-5-(4-amino-3-methyl-phenyl)-7,8-dihydro-8-methyl-7-(N-methyl-carbamoyl)-9H-1,3-dioxolo[4.5-h][2.3]benzodiazepine] | – | PE, Δ ° C. (peak effect, maximum decrease in body temperature) [2]: −1.46 °C; D, hours (duration of action) [2]: 20 h
CC(=O)N1N=C(c2ccc(N)c(C)c2)c2cc3c(cc2CC1(C)C#N)OCO3 (racemic) [Example 38, (±)-7-acetyl-5-(4-amino-3-methyl-phenyl)-8-cyano-7,8-dihydro-8-methyl-9H-1,3-dioxolo[4.5-h][2.3]benzodiazepine] | – | PD50, mg/kg i.p. [1]: 11.2 mg/kg; PE, Δ ° C. (peak effect, maximum decrease in body temperature) [2]: −1.34 °C; D, hours (duration of action) [2]: 9 h
